{"source": "patent US20240385168A1", "about": "“SEMICONDUCTOR-BASED MEASUREMENT DEVICES” (CytoTronics, priority 2023, published 2024)", "key": {"MDCK cells": {"test_system": "MDCK cells", "assay": "Live-cell impedance measurements of MDCK cells after compound treatment (water transport, doming)", "type": "cell-based, canine", "experimental": "(§1) Impedance measurements were performed with two different electric field configurations named vertical field (VF) and lateral field (LF) and at four different frequencies of 250 Hz, 1 kHz, 4 kHz, and 16 kHz, as shown in FIG. 27A. In total, 9 impedance parameter maps were measured per field configuration, including magnitude and phase for the 4 frequencies and a Direct Current (DC, 0 Hz) magnitude. […] Connections were observed between biological information and measurements at frequency magnitudes, phases, and DC.\n(§2) To perform field-based impedance measurements across multiple frequencies, a voltage stimulation was applied which is the summation of the four different frequency signals and return currents were measured using a transimpedance amplifier (TIA) configuration with a feedback gain of 18 MΩ. The magnitudes of the AC voltage signals were scaled to create similar output amplitudes that were measured by the TIA configuration (0.2 V/250 Hz, 0.08 V/1 kHz, 0.04 V/4 kHz, and 0.02 V/16 kHz for lateral field, 0.25 V/250 Hz, 0.1 V/1 kHz, 0.04 V/4 kHz, and 0.025 V/16 kHz for vertical field). Six of the 96 wells were scanned at a time taking 2.5 s, resulting in a total scan time across the well plate of 40 s. A fast Fourier transform (FFT) was used to extract the magnitude and phase of each of the four frequencies and the DC component—9 impedance parameter maps for each field configuration.\n(§3) A reference impedance map was used to determine the location of cells: a threshold was set above the electrodes' default impedance in solution, and the presence of a cell above an electrode then increased the impedance beyond the threshold for detection. Typically, the VF 4 kHz map provided the best contrast for generating the cell mask. For magnitude, phase, and DC, the median value of electrodes with cells was then calculated. An additional epoxy mask was calculated in a similar manner to remove electrodes which had spillover epoxy from well plate attachment. Before each cell plating, a reference measurement was taken in empty culture media to calculate the epoxy mask.\n(§4) Transient features such as motility and migration were generated from impedance videos through a root-mean-square (RMS) calculation. The difference between two unmasked image frames was taken (the epoxy mask was still used if applicable), then the RMS calculation was performed across the pixels of the difference map. To normalize for changes in magnitude, the calculated RMS was then divided by the median value of the cell-masked well distribution. Typically, the VF 4 kHz map was used for the RMS signal generation.\n(§5) Compound treatments were performed using a half media exchange. To prepare for compound addition, half the media from each well was removed. […]"}, "[1]": {"test_system": "autosomal dominant polycystic kidney disease (ADPKD)", "settings": "cited from earlier work"}, "Caco-2 cells [2]": {"test_system": "Caco-2 cells", "assay": "Caco-2 impedance barrier function measurements (341 compound screen, dose response, Amonafide analogues)", "type": "cell-based, human", "settings": "for change in Caco-2 barrier function at 12 hours post-compound application: 10 μM, versus control; for barrier increase (maximum VF 250 Hz) over the 48-hours: screen at 10 μM", "experimental": "To execute and analyze the screens, cells were seeded on five CMOS 96-wellplates, allowed to grow for 24 hours for A549 or 48 hours for Caco-2, compounds were added at 10 μM in 1% DMSO via a half media swap using an OpenTrons liquid handling robot. Effects were measured for 48 hours, with impedance measurements taken every 15 minutes. The many field/frequency and calculated parameters were then normalized to a timepoint one hour before compound addition. The array of normalized parameters at timepoints logarithmically spaced from compound addition to +48 hours were then used for a principal component analysis (PCA) and unbiased clustering using the top 20 PCA dimensions.\nCompound treatments were performed using a half media exchange. To prepare for compound addition, half the media from each well was removed. Compounds were prepared at 2× concentration in cell culture media, and the 2× compound solution was then added to the wells. Care was taken to keep DMSO concentration below 1%, compound dilutions were performed with a constant DMSO concentration. Compound in media was temperature- and CO2-equilibrated prior to addition. All compounds including the 341 compound library were obtained from Selleckchem Chemicals (Houston, TX). For the screening analysis, the pathway and target information provided by Selleckchem Chemicals was curated together.\nIn the second approach, rather than comparing 5 measurement parameters, all field and calculation parameters were used to perform an unbiased phenotypic profiling with a larger compound library. A total of 341 compounds were chosen as a sub-set of an FDA approved library and applied on two cell types, A549 and Caco-2. At least two compounds per target were chosen for conserved phenotype effects. For the screens, compounds were added 24 or 48 hours post cell seeding and measured up to 48 hours after the compound addition. Time normalization, a principal component analysis (PCA), and unbiased clustering were sequentially performed on the high-dimensional data readouts (VF & LF magnitudes, phase, and DC). This unbiased approach ensured compound separation based solely on functional and morphological effects of the cells, with no bias of the targets/pathways of the compounds."}, "ZO-1 in Caco-2 cells": {"test_system": "ZO-1 in Caco-2 cells", "assay": "Immunofluorescence imaging and quantification of ZO-1 in Caco-2 cells", "type": "cell-based, human", "settings": "48 hours post-compound treatment", "experimental": "For immunofluorescence imaging, cells were grown on coverslips and then either allowed to grow for 48 hours or treated with relevant compounds for 48 hours. Cells were then fixed in 4% paraformaldehyde, washed, permeabilized with 0.5% Triton-X 100 in PBS, and then subjected to antibody incubation. Antibodies used were anti-E-Cadherin (obtained from Cell Signaling Technology, Danvers, MA, as cat no: 3195T), anti-ZO1 (obtained from Thermo Fisher, Waltham, MA, as cat no:617300) and anti-Occludin (obtained from Thermo Fisher as cat no: 331500). Alexa Fluor 488 and 568 secondary antibodies were used. Coverslips were mounted in Vectashield® antifade mounting medium with DAPI.\nImaging was performed using a Yokogawa Wi spinning disk confocal on an inverted Nikon Ti fluorescence microscope equipped with Hamamatsu ORCA-Fusion BT CMOS camera (6.5 μm^2 photodiode), Lumencor SOLA fluorescence light source, and Nikon LUN-F XL solid state laser combiner: 405 nm (80 mW), 445 nm (35 mW), 488 nm (80 mW), 514 nm (50 mW), 561 nm (65 mW), and 640 nm (60 mW). For imaging, the widefield modality of the microscope was typically used, and all imaging was done using a 20× objective. Acquisition was performed using consistent exposure across samples to enable intensity quantification. Images were processed using the open source image processing software FIJI.\nQuantification of ZO-1 in the cell-membrane and nucleus was performed by manually defining ROIs for the cell membrane and nucleus. Mean integrated intensity was calculated within the ROI. All quantification was performed in raw, unprocessed images."}, "Caco-2 cells [3]": {"test_system": "Caco-2 cells", "assay": "Caco-2 impedance barrier function measurements (341 compound screen, dose response, Amonafide analogues)", "type": "cell-based, human", "settings": "dose response 1 nM to 10 μM"}, "many cell types": {"test_system": "many cell types", "assay": "Vertical field (VF) impedance across many cell types", "type": "cell-based", "experimental": "as §1, §2"}, "MDA-MB-231 cells": {"test_system": "MDA-MB-231 cells", "assay": "Live-cell impedance measurements of MDA-MB-231 cells after compound treatment", "type": "cell-based, human", "experimental": "as §1, §2, §3, §4, §5"}}, "note": "“Also recorded” adds a separate entry of the source.", "data": [{"compound": "COc1cc(Nc2ncc3c(n2)-c2ccc(Cl)cc2C(c2c(F)cccc2OC)=NC3)ccc1C(=O)O", "note": "[Alisertib]", "values": [{"measurement": "cell surface attachment", "setting": "MDCK cells", "value": "sharp decrease"}, {"measurement": "transepithelial water transport", "setting": "MDCK cells", "value": "accelerated"}, {"measurement": "domes (doming)", "setting": "MDCK cells; Alisertib 1 μM, Bosutinib 10 μM", "value": "increased doming; also recorded: Domes were only observed"}, {"measurement": "water transport detachment (LF 16 kHz) with respect to the control", "setting": "MDCK cells; mean±s.d. for 3 wells", "value": "accelerated"}, {"measurement": "ADPKD in animal models", "setting": "[1]", "value": "exacerbate"}]}, {"compound": "CN(C)CCN1C(=O)c2cccc3cc(N)cc(c23)C1=O", "note": "[Amonafide]", "values": [{"measurement": "change in Caco-2 barrier function at 12 hours post-compound application", "setting": "Caco-2 cells [2]", "value": "rapid increase in barrier"}, {"measurement": "barrier increase (maximum VF 250 Hz) over the 48-hours", "setting": "Caco-2 cells [2]", "value": "largest barrier increase; also recorded: highest observed increase in barrier"}, {"measurement": "ZO-1 levels and distribution (membrane, nucleus)", "setting": "ZO-1 in Caco-2 cells", "value": "increase in membrane ZO-1 levels, with additional nuclear localization; also recorded: Significant increases in ZO-1 in the membrane and nucleus"}, {"measurement": "time course of barrier increase", "setting": "Caco-2 cells [3]", "value": "rapid increase in barrier; also recorded: rapid and sustained increase"}]}, {"compound": "COc1ccc(C[C@H]2NC[C@H](O)[C@H]2OC(C)=O)cc1", "note": "[Anisomycin]", "values": [{"measurement": "VF (vertical field impedance)", "setting": "many cell types", "value": "increases in VF"}]}, {"compound": "Cc1cc(C2CCCCC2)n(O)c(=O)c1", "note": "[Ciclopirox]", "values": [{"measurement": "barrier increase (maximum VF 250 Hz) over the 48-hours", "setting": "Caco-2 cells [2]", "value": "largest barrier increase; also recorded: increased the barrier; also recorded: highest observed increase in barrier"}, {"measurement": "ZO-1 levels and distribution (membrane, nucleus)", "setting": "ZO-1 in Caco-2 cells", "value": "did not affect ZO-1 distribution or expression"}, {"measurement": "time course of barrier increase", "setting": "Caco-2 cells [3]", "value": "more gradual increase in barrier"}]}, {"compound": "C=C1[C@@H](C)[C@H]2[C@H](Cc3ccccc3)NC(=O)[C@]23[C@H](OC(C)=O)/C=C/[C@@](C)(O)C(=O)[C@@H](C)C/C=C/[C@H]3[C@@H]1O", "note": "[Cytochalasin D]", "values": [{"measurement": "attachment", "setting": "MDA-MB-231 cells", "value": "decreased"}, {"measurement": "concentration giving immediate cell size decrease", "setting": "MDA-MB-231 cells", "value": "≥ 0.2", "unit": "µM"}, {"measurement": "concentration giving subsequent cell size increase", "setting": "MDA-MB-231 cells", "value": "≥ 1", "unit": "µM"}, {"measurement": "motility (RMS)", "setting": "MDA-MB-231 cells", "value": "decrease"}]}, {"compound": "CCN(CC)CCN1C(=O)c2cccc3cc(N)cc(c23)C1=O", "note": "[NSC 308848]", "values": [{"measurement": "change in Caco-2 barrier function at 12 hours post-compound application", "setting": "Caco-2 cells [2]", "value": "rapid increase in barrier"}, {"measurement": "ZO-1 levels and distribution (membrane, nucleus)", "setting": "ZO-1 in Caco-2 cells", "value": "Significant increases in ZO-1 in the membrane and nucleus"}]}, {"compound": "CN(C)CCN1C(=O)c2cccc3cc(NC(N)=O)cc(c23)C1=O", "note": "[UNBS5162]", "values": [{"measurement": "change in Caco-2 barrier function at 12 hours post-compound application", "setting": "Caco-2 cells [2]", "value": "did not affect the barrier"}, {"measurement": "ZO-1 levels and distribution (membrane, nucleus)", "setting": "ZO-1 in Caco-2 cells", "value": "did not affect ZO-1 levels or distribution"}]}]}
